Data as given in patent US9045525B2, “Amyloid β-protein-specific production-inhibiting polypeptide” (THE DOSHISHA, priority 2012, dated 2015).

Assays:
[1] = system: Notch transiently expressed in CHO-K1 cells (7WD10 cells); test: Cleavage of Notch protein (NICD) in 7WD10 cells; assay type: cell-based; conditions: for NICD in the cell lysate: polypeptide 25 or 50 μM
Protocol: (§1) An experiment was conducted wherein #1, #2, and #4 polypeptides were reacted with CHO-K1 cells (7WD10 cells) that stably expressed APP protein and transiently expressed Notch to confirm the production of Aβ protein and cleavage of Notch protein.

[2] = system: CHO-K1 cells (7WD10 cells) that stably expressed APP protein; test: Aβ protein production inhibition experiment in 7WD10 cells (sAPPβ, βCTF, Aβ); assay type: cell-based
Protocol: as §1

[3] = target: β-secretase against APP (APP-EQ-FLAG) (Homo sapiens, UniProt P05067); test: β-Secretase activity inhibition experiment in vitro, APP-EQ-FLAG substrate; assay type: biochemical; conditions: polypeptide 50 μM, 4 hours, 37° C., Western blotting
Protocol: A solution containing the polypeptide having APP (APP-EQ-FLAG: SEQ ID NO: 18) as shown in FIG. 5(A) was prepared in such a manner that its final concentration was 50 nM.
To this solution, 9-7 polypeptide, 6-5 polypeptide, #1 polypeptide, #2 polypeptide, #3 polypeptide, #4 polypeptide, #5 polypeptide, #6 polypeptide, #7 polypeptide, #8 polypeptide, #9 polypeptide, and #10 polypeptide were added in such a manner that each solution had the final concentration of 50 μM, followed by reacting with 50 μL β-secretase (0.02 U/μL) for 4 hours. The reaction temperature was 37° C. As a negative control experiment, DMSO was used in place of the 12 types of polypeptides mentioned above.
After completion of the reaction, each sample was subjected to Western blotting using a monoclonal antibody (82E-1) that specifically recognizes the N terminal of APP-EQ-FLAG as shown in FIG. 5(A). Thereafter, the amount of Aβ33-FLAG protein separated by β-secretase was measured.
An experiment was conducted in the same manner as Experimental Example 4 described above except that S4 and #4 polypeptides were used as the polypeptide and the amounts of these polypeptides added were adjusted so that the final concentrations were 1, 5, 10, 20, 50, and 100 μM.

Sequence of β-secretase against APP (APP-EQ-FLAG) (P05067 with tags, fused parts or gaps): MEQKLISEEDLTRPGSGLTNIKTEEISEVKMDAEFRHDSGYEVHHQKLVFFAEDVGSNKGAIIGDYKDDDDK

`CC(C)C[C@H](NC(=O)[C@H](Cc1ccccc1)C[C@@H](O)[C@H](Cc1ccccc1)NC(=O)OC(C)(C)C)C(=O)N[C@@H](Cc1ccccc1)C(N)=O` [L685458, reference compound] was tested, and the “amount of NICD in the cell lysate” value ([1]; L685458 1 μM) was “the amount of NICD was decreased”, the “Aβ protein in the cell culture medium (released Aβ)” value ([2]; L685458 1 μM) was “decreased” and the “Aβ protein in the cell lysate (intracellular Aβ)” value ([2]; L685458 1 μM) was “decrease in βCTF (C99) and Aβ protein was also observed”. For the same compound, the “sAPP in the cell lysate” value ([2]; L685458 1 μM) was “such a phenomenon was not observed” and the “βCTF (C99) in the cell lysate” value ([2]; L685458 1 μM) was “decrease in βCTF (C99) and Aβ protein was also observed”.

For “FRBGWVYTYTV (FRXGWVYTYTV; HELM PEPTIDE1{[ac].F.R.[O=C([C@H](Cc1ccc(-c2ccccc2)cc1)N[*:1])[*:2]].G.W.V.Y.T.Y.T.V.[am]}$$$$V2.0; SMILES CC(=O)N[C@@H](Cc1ccccc1)C(=O)N[C@@H](CCCNC(=N)N)C(=O)N[C@@H](Cc1ccc(-c2ccccc2)cc1)C(=O)NCC(=O)N[C@@H](Cc1c[nH]c2ccccc12)C(=O)N[C@H](C(=O)N[C@@H](Cc1ccc(O)cc1)C(=O)N[C@H](C(=O)N[C@@H](Cc1ccc(O)cc1)C(=O)N[C@H](C(=O)N[C@H](C(N)=O)C(C)C)[C@@H](C)O)[C@@H](C)O)C(C)C) [S2, B is L-4,4′-biphenylalanine (Bph) residue]”, the “NICD in the cell lysate” value [1] was “did not have any influence on NICD” and the “Aβ protein in the cell culture medium” value ([2]; polypeptide final concentration of 50 μM) was “exhibited the Aβ protein production inhibition effect almost to the same level as #4 polypeptide and S4 polypeptide”.

With “MGLISCDCYCDSTACFCYSCTDF (Ac-MGLISCDCYCDSTACFCYSCTDF-NH2; cysteine pairing not given here) [#3]” the “cleavage activity of β-secretase against APP (Aβ33-FLAG)” value (“cleavage activity of β-secretase” for short) [3] was “inhibit the cleavage activity of β-secretase against APP more intensely”.

For “MGRVNCDCYCIGHYCYCYYCHNI (Ac-MGRVNCDCYCIGHYCYCYYCHNI-NH2; cysteine pairing not given here) [#8]”, the “cleavage activity of β-secretase” value [3] was “inhibit the cleavage activity of β-secretase against APP more intensely”.

For “MLICDCYCDPRSCICGSCTLV (Ac-MLICDCYCDPRSCICGSCTLV-NH2; cysteine pairing not given here) [L13]”, the “NICD in the cell lysate” value [1] was “did not have any affect on NICD” and the “Aβ protein in the cell culture medium” value ([2]; polypeptide 25 or 50 μM) was “did not inhibit the production of Aβ”.

For “MLYTSCDCYCDAFSCFCYSCGPY (Ac-MLYTSCDCYCDAFSCFCYSCGPY-NH2; cysteine pairing not given here) [#6]”, the “cleavage activity of β-secretase” value [3] was “inhibit the cleavage activity of β-secretase against APP more intensely”.

“MPLSICDCYCISTICYCYFCVHR (Ac-MPLSICDCYCISTICYCYFCVHR-NH2; cysteine pairing not given here) [#9]” was tested, and the “cleavage activity of β-secretase” value [3] was “inhibit the cleavage activity of β-secretase against APP more intensely”.

With “MPTVYCDCYCAYNACYCYYCRSD (Ac-MPTVYCDCYCAYNACYCYYCRSD-NH2; cysteine pairing not given here) [#10]” the “cleavage activity of β-secretase” value [3] was “inhibit the cleavage activity of β-secretase against APP more intensely”.

“MVPVVCDCYCFLSVCFCYSCYIT (Ac-MVPVVCDCYCFLSVCFCYSCYIT-NH2; cysteine pairing not given here) [#5]” was tested, and the “cleavage activity of β-secretase” value [3] was “inhibit the cleavage activity of β-secretase against APP more intensely”.
